From patent US9719987B2, “Immunoadsorbent compositions comprising hyaluronic acid oligosaccharides” (FUNDACIO INSTITUT D'INVESTIGACIO BIOMEDICA DE BELLVITGE …, priority 2012, dated 2017)
Values joined by “and” are separate entries in the source; they are usually repeats but may differ in a detail not shown here. Identical values can stand only once.

Columns and labels:
[1] = system: anti-HA antibodies in rat serum; assay: Specific ELISA for HA oligosaccharides, rats immunized with PRBC or hamster blood; format: binding; conditions: for level of preformed antibodies in rats compared to humans: rats before exposure; for level of preformed antibodies in rats compared to humans / production of IgM antibodies: FIG. 6; for production of IgM antibodies / production of IgG antibodies: rats; for production of IgM antibodies: three injections of PRBC or hamster blood every other day; for production of IgG antibodies: three injections of PRBC or hamster blood every other week, FIGS. 7 and 8
Description: Rats were immunized either with PRBC and hamster blood following two protocols to produce mainly IgM or IgG anti-carbohydrate antibodies. Three injections of 1 ml every other day (days 0, 2 and 4) and drawn of blood sample on day 5 was used to investigate IgM antibodies, and three injections every two weeks times 3, with blood obtained 12 days after last injection was used to investigate IgG antibodies.
(§1) The enzyme-linked immunosorbent assay (ELISA) plates were coated with HA oligosaccharides (disaccharide, tetrasaccharide and decasaccharide) conjugated with polyacrylamide, obtained from Shemyakin-Ovchinnikov Institute of Biorganic Chemistry, Russian Academy of Science (Moscow, Russia). The disaccharide form was synthesized in this institution, whilst the tetrasaccharide and decasaccharide molecules were obtained from Sigma, Spain, and bound to polyacrylamide in this center. The protocol for determination of anti-HA antibodies was based in previously described ELISAs to determine other anti-carbohydrate antibodies with minimal modifications (Mañez R et al. 2001 Xenotransplantation 8: 15-23; Obukhova P et al. 2007 Xenotransplantation 14: 627-635).

[2] = system: anti-HA antibodies in human serum; assay: Specific ELISA for HA oligosaccharides, human serum; format: binding
Description: as §1
Humans also have preformed antibodies against HA disaccharide (von Gunten S et al. 2009 J Allergy Clin Immunol 123: 1268-1276; Huflejt M E et al. 2009 Mol Immunol 46: 3037-3049). Thus, we used human serums randomly selected to investigate by specific ELISAS, the presence of preformed antibodies against HA disaccharide, tetrasaccharide and decasacchride. Also, antibodies against HA oligosaccharides were investigated in rats immunized either with PRBC and hamster blood following two protocols to generate mainly IgM or IgG antibodies.
The inventors analyzed the level of anti-HA disaccharide antibodies by specific ELISA in patients with SLE and anti-DNA antibodies (Group A; n=17), SLE without anti-DNA antibodies (Group B; n=10) and controls from blood bank (Group C; n=13). The values for IgM anti-HA disaccharide antibodies were (mean±S.E.) 0.58±0.07 in Group A, 0.71±0.13 in Group B, and 0.74±0.11 in Group C, with p=0.1 in ANOVA comparing Group A with Groups B or C. For IgG, the values were 0.37±0.08 in Group A, 0.27±0.05 in Group B, 0.27±0.03 in Group C, with a p=0.3 in ANOVA comparing Group A with Groups B or C.

[3] = system: anti-carbohydrate antibodies of baboon serums; assay: Glycan array screening of baboon serums (406 glycans); format: binding, baboons (Papio anubis); conditions: for change of anti-carbohydrate antibodies after PRBC exposure: animal E19; for average±S.D. level of antibodies: before transplant/PRBC, animals without anti-Gal removal (A15, A14) or sampled before GAS914 (C63)
Description: Heterotopic pig heart and kidney were placed in the abdominal cavity of baboons as previously described (Schmoeckel M et al. 1998 Transplantation 65:1570-1577; Cozzi E et al. 1997 Transplantation. 64:1383-1392). Blood samples for anti-carbohydrate antibody analysis were obtained from each animal before transplantation and at acute humoral xenotransplant rejection (AHXR).
Three animals (D29, E19 and E7) were exposed to weekly injections of 5 cubic centimeters (cc) of PRBC three times and blood samples for anti-carbohydrate antibodies were analysed one week after last injection. Another animal received 7 daily injections of 5 cc of PRBC (C63), until an augment of the level of anti-pig hemolytic antibodies (APHA) was observed, and blood samples were analysed at days 2, 20 and 30 relative to the first PRBC injection.
The carbohydrate-binding specificity of baboon serums obtained before and after pig organ xenotransplantation or PRBC exposure was investigated on glycan array v4.1 comprised of 406 glycans (Consortium for Functional Glycomics, Protein-Glycan Interaction Core-H) (http://www.functionalglycomics.org). Two different studies were performed: Consortium for Functional Glycomics projects #1313 and #1577. Pre and post-immunization samples from each animal were analysed in the same glycoarray study with exception of C63 day 20, which was performed in study #1577 whilst the other samples from this animal were analysed in study #1313. In order to assess the potential effect of a different glycoarray study, a linear mixed model with repeated measures was fitted for each carbohydrate, with its log expression as dependent variable and type of sample (pre or post-immunization) and the study (#1313 or #1577) as independent variables.

[4] = baboon C63, 200 mg/kg CyP over 4 days from day 20, day relative to first PRBC injection
Description: The dose of CyP was chosen because it largely eliminates the mature immune system, leading to a major reduction in antibody and autoantibody levels, while leaving hematopoietic precursors intact.

[5] = system: human endothelial cells (HMEC); assay: Flow cytometry of non-human primate antibody binding to HMEC pre-treated with hyaluronidase; format: cell-based
Description: The authors have previously shown that immunization of non-human primates with pig blood is associated with the generation of xenoantibodies cross-reactive to human endothelial cells. To investigate whether HA antigens were involved in this reactivity, human endothelial cells (HMEC) were pre-treated with 20 Um′ of hyaluronidase from Streptomyces, which is specific for HA, for one hour. This hyaluronidase cleaves HA in fragments of 4 and 6 saccharides (tetra- and hexasaccharides). […] To show the effect of hyaluronidase pre-treatment in HA on HMEC cells, a hyaluronan-binding-protein (HABP), which binds to large molecular weight HA, was used as control (FIG. 9C).

[6] = system: hyaluronan (HA antigens) in pig xenograft tissue; assay: Immunohistochemistry of IgM and IgG deposits in xenografts at AHXR with hyaluronidase pre-treatment; design: species or system pig xenograft in baboon
Description: In all the transplants an open xenograft biopsy was obtained 30 minutes after reperfusion, as well as at autopsy after AHXR. Tissue samples were fixed in 10% buffered formalin for at least 24 hours, dehydrated, and embedded in paraffin. Sections of 4 μm thickness were stained with hematoxylin and eosin Immunohistochemical examinations for IgG and IgM were performed in paraffin-embedded material. After inhibition of endogenous alkaline phosphatase with levamisol for 10 minutes, samples were incubated with goat anti-human IgG and IgM alkaline phosphatase conjugated (Sigma-Aldrich) for 30 minutes at 1:50 dilution. Tissue samples where then incubated with the EnVision™ G|2, Rabbit/Mouse (LINK) (Dako) following product recommendations. This reagent is a dextran polymer, which also carries antibodies to rabbit and mouse immunoglobulins. Finally, an alkaline phosphatase-labelled amplification polymer is added. The reaction is visualized by Permanent Red Chromogen also included in the kit. To investigate the potential role of hyaluronan as antigen some tissue sections were pre-treated with 50 u/mL of Streptomyces hyaluronidase (Sigma-Aldrich) for two hours at 37° C., which unlike other hyaluronidases is specific for hyaluronan.
To investigate the potential impact of HA antigens in AHXR, the presence of IgM and IgG deposits in tissue samples was investigated with and without previous incubation with Streptomyces hyaluronidase, which is specific for HA.

[7] = Group A: SLE and anti-DNA antibodies, n=17
[8] = Group B: SLE without anti-DNA antibodies, n=10
[9] = Group C: controls from blood bank, n=13
[10] = randomly selected human serums, FIG. 5
[11] = animal D17, kidney xenotransplantation
[12] = hyaluronidase pre-treatment 20 Um′, one hour, serum of primates immunized with pig blood

Molecule: GlcAβ1-3GlcNAcβ-Sp8 [Glycan 300]
- level of preformed antibodies in rats compared to humans [1]: lower level
- production of IgM antibodies [1]: significant production of IgM antibodies
- production of IgG antibodies [1]: significant production
- IgG anti-HA disaccharide antibodies (mean±S.E.) [2, 7]: 0.37±0.08
- IgM anti-HA disaccharide antibodies (mean±S.E.) [2, 7]: 0.58±0.07
- IgG anti-HA disaccharide antibodies (mean±S.E.) [2, 8]: 0.27±0.05
- IgM anti-HA disaccharide antibodies (mean±S.E.) [2, 8]: 0.71±0.13
- IgG anti-HA disaccharide antibodies (mean±S.E.) [2, 9]: 0.27±0.03
- IgM anti-HA disaccharide antibodies (mean±S.E.) [2, 9]: 0.74±0.11
- preformed IgG antibodies in human serum [2, 10]: preformed IgG antibodies are only against HA disaccharide
- preformed IgM antibodies in human serum [2, 10]: preformed IgM antibodies
- cases with antibodies within the top 20 increases after PRBC exposure ([3]; PRBC exposure, 4 baboons): all the cases
- change of anti-carbohydrate antibody reactivity at AHXR vs before transplantation ([3]; animal A14, severe rejection): More significant raises
- change of anti-carbohydrate antibody reactivity at AHXR vs before transplantation ([3]; animal A15, no treatment, survival 4 days): decreased reactivity
- augment of antibodies after PRBC exposure ([3]; animal C63, day 20, two weeks after end of PRBC injections): evidenced
- level of antibodies after PRBC exposure ([3]; animal C63, day 30 after CyP treatment): higher level of anti-carbohydrate antibodies
- augment of antibodies after PRBC exposure ([3]; animal C63, day two, during PRBC exposure): not present
- change of anti-carbohydrate antibody reactivity at AHXR vs before transplantation ([3]; animal D10, mild rejection): moderated augment
- change of anti-carbohydrate antibody reactivity at AHXR vs before transplantation ([3]; animal D12, severe rejection): More significant raises
- change of anti-carbohydrate antibody reactivity at AHXR vs before transplantation [3, 11]: moderated augment
- change of anti-carbohydrate antibodies after PRBC exposure [3]: higher level and increase
- rank of average level of antibodies ([3]; baboons before exposure to PRBC): highest reactivity
- rank of average level of antibodies ([3]; baboons before pig organ xenotransplantation): second highest reactivity
- average±S.D. level of antibodies [3]: 18332±14201 net fluorescence units (NFU)

Molecule: CC(=O)N[C@H]1C(O)O[C@H](CO)[C@@H](O[C@@H]2O[C@H](CO)[C@H](O)[C@H](O[C@H]3O[C@H](CO)[C@H](O)[C@H](O)[C@H]3O)[C@H]2O)[C@@H]1O (stereo partly drawn) [Gal, Galα1-3Galβ1-4GlcNAc, reference compound]
- average±S.D. level of antibodies [3]: 3865±2892 net fluorescence units (NFU)

Molecule: O=P1(N(CCCl)CCCl)NCCCO1 (stereo not drawn) [CyP, cyclophosphamide]
- day of death because of side effects from CyP treatment [4]: 31 days and 30 days

Molecule: CC(=O)N[C@H]1[C@H]([C@H](O)[C@H](O)CO)O[C@](OCCCN)(C(=O)O)C[C@@H]1O [Glycan 14, Neu5Acβ-Sp8, reference compound]
- change of anti-carbohydrate antibodies after PRBC exposure [3]: barely changed

Molecule: C[C@@H]1O[C@@H](OCCCN)[C@H](O)[C@H](O)[C@H]1O [Glycan 11, Rha-Sp8, reference compound]
- change of anti-carbohydrate antibody reactivity at AHXR vs before transplantation [3, 11]: augmented

Molecule: Hyaluronidase
- non-human primate IgG antibody binding to HMEC [5, 12]: augment
- non-human primate IgM antibody binding to HMEC [5, 12]: not observed
- HA expression on HMEC detected with hyaluronan-binding-protein (HABP) ([5]; hyaluronidase pre-treatment, compared to the baseline): reduction of HA expression
- IgG antibody deposits in xenograft at AHXR, semiquantitative score ([6]; animal A14, AHXR III): complete disappearance
- IgM antibody deposits in xenograft at AHXR, semiquantitative score ([6]; animal A14, AHXR III): notably reduced
- IgG antibody deposits in xenograft at AHXR, semiquantitative score ([6]; animal A15, AHXR III): complete disappearance
- IgM antibody deposits in xenograft at AHXR, semiquantitative score ([6]; animal A15, AHXR III): did not show any change
- IgG antibody deposits in xenograft at AHXR, semiquantitative score ([6]; animal D10, AHXR I): complete disappearance
- IgM antibody deposits in xenograft at AHXR, semiquantitative score ([6]; animal D10, AHXR I): disappeared
- IgG antibody deposits in xenograft at AHXR, semiquantitative score ([6]; animal D12, AHXR III): remarkable reduction
- IgM antibody deposits in xenograft at AHXR, semiquantitative score ([6]; animal D12, AHXR III): notably reduced
- IgG antibody deposits in xenograft at AHXR, semiquantitative score ([6]; animal D17, AHXR III): remarkable reduction
- IgM antibody deposits in xenograft at AHXR, semiquantitative score ([6]; animal D17, AHXR III): did not show any change

Molecule: CC(=O)N[C@H]1[C@H](O[C@H]2[C@H](O)[C@@H](O)[C@H](O[C@H]3[C@H](O)[C@@H](CO)OC(O)[C@@H]3NC(C)=O)O[C@@H]2C(=O)O)O[C@H](CO)[C@@H](O)[C@@H]1O[C@@H]1O[C@H](C(=O)O)[C@@H](O)[C@H](O)[C@H]1O (stereo partly drawn) [HA tetrasaccharide]
- level of preformed antibodies in rats compared to humans [1]: lower level
- production of IgM antibodies [1]: significant production of IgM antibodies
- production of IgG antibodies [1]: significant production
- preformed IgM antibodies in human serum [2, 10]: preformed IgM antibodies
